This is an account of results in article PMC12664589 (Journal of Structural Biology: X, 2025).

The experiment deals with CpNce103p (Candida parapsilosis, UniProt G8B6R8). Briefly: biochemical. Format: biochemical.

Where two headings read alike, the source gives them in different places.

A word on the Ki: it is a dissociation constant, usually derived from enzyme kinetics or from competition with a known ligand. `NCc1ccc(S(N)(=O)=O)cc1` [Compound 2, 4-(aminomethyl)benzenesulfonamide] had a Ki of 3170 µM.
Compound `O=[N+]([O-])c1ccccc1S(=O)(=O)Cl` [Compound 3, 2-Nitrobenzenesulfonyl chloride] showed a Ki of 869 µM.
The same measure, in the same setting: for `C#CCCS(N)(=O)=O` [Compound 4, but-3-yne-1-sulfonamide] the value was 933 µM.
Regarding `NS(=O)(=O)c1ccccc1` [Compound 5, Benzenesulfonamide], the Ki came out at 922 µM.
The same measure, in the same setting: for `NN=C(c1ccccc1)c1ccccc1` [Compound 7, Benzophenone hydrazone] the value was 302 µM.
Take `NS(N)(=O)=O` [Compound 8, Sulfamide]: where the note is “pH 7.5, read-out: Ki”, the Ki was determined as 1600 µM.
In the case of `Nc1ccc(S(N)(=O)=O)cc1` [Compound 9, Sulfanilamide], the Ki was 825 µM.
On to `[N-]=[N+]=NCC(=O)NCCc1ccc(S(N)(=O)=O)cc1` [Compound 10, 2-azido-N-(4-sulfamoylphenethyl)acetamide], for which the affinity corresponds to a Ki of 1510 µM.
The compound `NS(=O)(=O)c1ccc([N+](=O)[O-])cc1` [Compound 13, 4-Nitrobenzenesulfonamide] returned a Ki of 188 µM.
The same measure, in the same setting: for `NS(=O)(=O)c1cc(C(=O)O)c(NCc2ccccc2)cc1Cl` [Compound 14, 2-(benzylamino)-4-chloro-5-sulfamoylbenzoic acid] the value was 377 µM; for `N[C@@H](Cc1c[nH]c2ccccc12)C(=O)O` [Compound 15, L-Tryptophan], 842 µM.
Same read-out and setting: to `NS(=O)(=O)C(F)(F)F` [Compound 16, Trifluoromethanesulfonamide] belongs 2.2 µM.
